From paper PMC8011784, “Chronic peptide-based GIP receptor inhibition exhibits modest glucose metabolic changes in mice when administered either alone or combined with GLP-1 agonism” (PLoS ONE, 2021)
Starred links: 1 amine or outer side, 2 acyl side, 3 side chain; linkers in the order of their positions; H or OH if unused. Residues, ends and D or L forms follow the SMILES beside them. Groups on a side chain read outwards from the residue. No end group written: not given here. *: point of attachment. γGlu = O=C(O)[C@H](CCC(=O)[*:2])N[*:1]; Palmitoyl = CCCCCCCCCCCCCCCC(=O)*

Tests used:
[1] = cited from earlier work
From the text: Given the strong in vitro pharmacological data and our interest in other metabolic parameters such as adiposity and insulin se ...

mouse GIP receptor = target: T1, mouse GIP receptor (Mus musculus, UniProt Q0P543); experiment: Antagonist mode cAMP assay: inhibition of mouse GIP-induced cAMP production in CHO-K1 GIPR Gs cells; assay type: cell-based; details: curve fit value in plot, unit from legend, read-out: IC50 (printed on plot, Fig 1A/1B)
T1 construct: host or cells: CHO-K1 (cAMP Hunter CHO-K1 GIPR Gs cell line)
T1 sequence (Q0P543 19-460): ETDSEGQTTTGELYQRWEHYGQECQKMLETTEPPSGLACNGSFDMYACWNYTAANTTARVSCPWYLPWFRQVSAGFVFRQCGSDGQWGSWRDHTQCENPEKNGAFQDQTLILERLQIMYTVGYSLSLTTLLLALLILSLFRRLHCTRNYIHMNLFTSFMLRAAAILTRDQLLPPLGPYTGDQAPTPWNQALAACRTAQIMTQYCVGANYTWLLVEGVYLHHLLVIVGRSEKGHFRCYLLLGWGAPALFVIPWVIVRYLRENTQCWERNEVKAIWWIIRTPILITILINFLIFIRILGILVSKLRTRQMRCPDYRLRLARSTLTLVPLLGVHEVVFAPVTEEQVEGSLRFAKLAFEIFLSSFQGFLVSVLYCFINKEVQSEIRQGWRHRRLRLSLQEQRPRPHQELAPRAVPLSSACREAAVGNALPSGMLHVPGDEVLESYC
Procedure: Each peptide was tested for its ability to activate or inhibit the mouse GIP receptor using the cAMP Hunter™ CHO-K1 GIPR Gs cell line, in combination with the Hit Hunter® cAMP XP+ assay for determining cAMP, according to the manufacturer’s instructions (Eurofins DiscoverX Corporation).
Fig 1 Effects of acute GIPR antagonism on glucose homeostasis and insulin secretion. GIPA-1 and GIPA-2 are antagonists of mouse GIPR. […] IC50 values (μM) are indicated on the plots. (C-J) Acute effects of GIPA-1 and GIPA-2 on glucose homeostasis and insulin secretion in lean mice. Oral glucose tolerance tests (C and E), the corresponding areas under the curve (AUC) (D and F) and insulin responses (I) following subcutaneous injections of vehicle, 1,5 and 10 mg/kg GIPA-1 (C and D) or vehicle, 1,5 and 10 mg/kg GIPA-2 (E and F) before an oral glucose administration (1.5 g/kg). […] Statistical analysis was calculated using two-way ANOVA with Tukey’s post-hoc test (C, E, G and J) and one-way ANOVA with Dunnett’s post-hoc test (D, F, H, I). *: p< 0.05, **: p < 0.01, ***: p < 0.001, ****: p<0.0001 compared to vehicle.
We began by characterising the receptor-interaction properties of GIPA-1 and GIPA-2. Their agonist and antagonist potencies were measured via a cAMP production assay in CHO-K1 cells overexpressing the mouse GIPR.

GIPR = details: cited from earlier work
From the text: Further controversy is evident with peptide based GIPR antagonists. […] In contrast, a palmitoyl variant of Pro^3GIP(3–30) ... || The GLP-1-agonist-GIPR-antagonist combination therapy reported in the present study was born from evidence of compromised gut-hormone function in obesity and diabetes as well as their postulated role in driving the beneficial metabolic effects following bariatric surgery. Indeed, GLP-1 secretion is enhanced after bariatric surgery which is thought to be a key component for the resolution of diabetes. In contrast, the controversial role of the GIP signalling pathway in dysmetabolic states has led to the pursuit of both agonist and antagonist approaches. There is a compelling ...

GIP receptor = details: humans, co-infusion with GIP(3-30)NH2; cited from earlier work
From the text: (§1) It has been shown that rat and the human GIP(3-30)NH2 are effective antagonists in vivo [48, 49], so we would expect the mouse GIP(3-30)NH2 to behave in a similar manner. […] In humans GIP-induced insulin secretion was reduced by 82% during co-infusion with GIP(3-30)NH2 [48].

[2] = tested on: lean male C57BL/6JRj mice; experiment: Acute intraperitoneal glucose tolerance test (IPGTT) with GIPA-2 and mouse GIP in lean mice; assay type: in vivo; details: n = 8; for plasma insulin: 0.1 mg/kg mouse GIP SC
Procedure: The effects of GIPA-2 and mouse GIP alone or in combination were studied in 10-week old lean male C57BL/6JRj mice. Animals were fasted 4 hours prior to an intraperitoneal glucose bolus (1.5 g/kg). Sixty minutes prior to glucose load animals received subcutaneous injection of 5mg/kg GIPA-2, while animals receiving mouse GIP (0.1 mg/kg) were dosed subcutaneously 15 minutes prior to glucose load. Blood glucose was measured just before the administration of GIPA-2 and at 0, 15, 30 60, 120, 180 and 240 min. Plasma insulin was measured at 0, 15 and 240 min.
Fig 1 Effects of acute GIPR antagonism on glucose homeostasis and insulin secretion. GIPA-1 and GIPA-2 are antagonists of mouse GIPR. […] IC50 values (μM) are indicated on the plots. (C-J) Acute effects of GIPA-1 and GIPA-2 on glucose homeostasis and insulin secretion in lean mice. Oral glucose tolerance tests (C and E), the corresponding areas under the curve (AUC) (D and F) and insulin responses (I) following subcutaneous injections of vehicle, 1,5 and 10 mg/kg GIPA-1 (C and D) or vehicle, 1,5 and 10 mg/kg GIPA-2 (E and F) before an oral glucose administration (1.5 g/kg). (G, H and J) Acute effect of GIPA-2 alone or in combination with mouse GIP on glucose homeostasis and insulin secretion in lean mice. Intraperitoneal glucose tolerance test cute IPGTT (G), the corresponding AUC (H) and insulin response (J) following subcutaneous injections of vehicle, 0.1 mg/kg mouse GIP, 5mg/kg GIPA-2, and combination of both. Group sizes are n = 8, and data are represented as mean ± SEM. Statistical analysis was calculated using two-way ANOVA with Tukey’s post-hoc test (C, E, G and J) and one-way ANOVA with Dunnett’s post-hoc test (D, F, H, I). *: p< 0.05, **: p < 0.01, ***: p < 0.001, ****: p<0.0001 compared to vehicle.

rats = details: 25 nmol/kg b.w. for 3 weeks, cited from earlier work
From the text: as §1, with “Further controversy is evident with peptide based GIPR antagonists. […] In contrast, a palmitoyl variant of Pro^3GIP(3–30) ... || It” for “It”

In the case of `CCCCCCCCCCCCCCCC(=O)N[C@@H](CCC(=O)N[C@@H](CCC(=O)NCCCC[C@H](NC(=O)[C@H](CC(=O)O)NC(=O)[C@H](CO)NC(=O)[C@@H](NC(=O)[C@H](Cc1ccccc1)NC(=O)[C@@H](NC(C)=O)[C@@H](C)O)[C@@H](C)CC)C(=O)N[C@@H](CO)C(=O)N[C@H](C(=O)N[C@@H](C)C(=O)N[C@@H](CCSC)C(=O)N[C@@H](CC(=O)O)C(=O)N[C@@H](CCCCN)C(=O)N[C@H](C(=O)N[C@@H](CCCNC(=N)N)C(=O)N[C@@H](CCC(N)=O)C(=O)N[C@@H](CCC(N)=O)C(=O)N[C@@H](CC(=O)O)C(=O)N[C@@H](Cc1ccccc1)C(=O)N[C@H](C(=O)N[C@@H](CC(N)=O)C(=O)N[C@@H](Cc1c[nH]c2ccccc12)C(=O)N[C@@H](CC(C)C)C(=O)N[C@@H](CC(C)C)C(=O)N[C@@H](C)C(=O)N[C@@H](CCC(N)=O)C(=O)N[C@@H](CCCCN)C(=O)NCC(=O)N[C@@H](CCCCN)C(=O)N[C@@H](CCCCN)C(=O)N[C@@H](CC(N)=O)C(=O)N[C@@H](CC(=O)O)C(=O)N[C@@H](Cc1c[nH]c2ccccc12)C(=O)N[C@@H](CCCCN)C(=O)N[C@@H](Cc1c[nH]cn1)C(=O)N[C@@H](CC(N)=O)C(=O)N[C@H](C(=O)N[C@H](C(=O)N[C@@H](CCC(N)=O)C(=O)O)[C@@H](C)O)[C@@H](C)CC)C(C)C)[C@@H](C)CC)[C@@H](C)CC)C(=O)O)C(=O)O` [GIPA-2, N^αAc-K10[γEγE-C16]-Arg18-hGIP(5–42)] (Ac-TFISDK([γGlu-γGlu-Palmitoyl])SIAMDKIRQQDFVNWLLAQKGKKNDWKHNITQ-OH), the “plasma half-life and in vivo duration of action” value [1] is given as “extended plasma half-life” and the IC50 (mouse GIP receptor) is given as 2.97 nM.
In the case of “GIP(3–30)NH2: N-terminally truncated form of GIP, potent peptide-based antagonist; species not stated (EGTFISDYSIAMDKIHQQDFVNWLLAQK-NH2; UniProt P09681 54-81, looked up, fragment)”, the GIPR antagonist potency (GIPR) is listed as “potent peptide-based antagonist”.
In the case of “human GIP(3-30)NH2: the human peptide sequence of GIP(3-30)NH2 (EGTFISDYSIAMDKIHQQDFVNWLLAQK-NH2; UniProt P09681 54-81, looked up, fragment)”, the “reduction of GIP-induced insulin secretion” value (GIP receptor) is listed as 82% and the plasma elimination half-life ([1]; human peptide sequence, in humans) is listed as 7.7 ± 1.4 min.
In the case of “(Pro3)-GIP: GIPR antagonist subsequently found to also possess partial agonist properties (YAPGTFISDYSIAMDKIHQQDFVNWLLAQKGKKNDWKHNITQ; Gastric inhibitory polypeptide; UniProt P09681 52-93, looked up, variant E3P)”, the GIPR agonist/antagonist character (GIPR) is listed as “originally characterized as an antagonist but was subsequently found to also possess partial agonist properties”.
Work on `CC[C@H](C)[C@H](NC(=O)[C@H](CO)NC(=O)[C@H](Cc1ccc(O)cc1)NC(=O)[C@H](CC(=O)O)NC(=O)[C@H](CO)NC(=O)[C@@H](NC(=O)[C@H](Cc1ccccc1)NC(=O)[C@@H](NC(=O)CNC(=O)[C@@H](N)CCC(=O)O)[C@@H](C)O)[C@@H](C)CC)C(=O)N[C@@H](C)C(=O)N[C@@H](CCSC)C(=O)N[C@@H](CC(=O)O)C(=O)N[C@@H](CCCCN)C(=O)N[C@H](C(=O)N[C@@H](CCCNC(=N)N)C(=O)N[C@@H](CCC(N)=O)C(=O)N[C@@H](CCC(N)=O)C(=O)N[C@@H](CC(=O)O)C(=O)N[C@@H](Cc1ccccc1)C(=O)N[C@H](C(=O)N[C@@H](CC(N)=O)C(=O)N[C@@H](Cc1c[nH]c2ccccc12)C(=O)N[C@@H](CC(C)C)C(=O)N[C@@H](CC(C)C)C(=O)N[C@@H](C)C(=O)N[C@@H](CCC(N)=O)C(=O)N[C@@H](CCCNC(=N)N)C(N)=O)C(C)C)[C@@H](C)CC` [GIPA-1, mouse GIP(3–30)NH2] yielded an IC50 (mouse GIP receptor) of 483 nM.
With “mouse GIP: Mouse GIP was sourced from Phoenix Pharmaceuticals (YAEGTFISDYSIAMDKIRQQDFVNWLLAQRGKKSDWKHNITQ; Gastric inhibitory polypeptide; UniProt P48756 44-85, looked up)” the “glucose tolerance (IPGTT)” value ([2]; 5 mg/kg GIPA-2 SC 60 min and/or 0.1 mg/kg mouse GIP SC 15 min before ip glucose 1.5 g/kg) was “significantly improved glucose tolerance”, the plasma insulin ([2]; 15 and 240 min timepoints) was “This effect was not observed” and the plasma insulin ([2]; 15 minutes after mouse GIP, just prior to glucose bolus (0 min), 5 mg/kg GIPA-2 SC) was “robust increase in plasma insulin”.
For “rat GIP(3–30)NH2: GIPR antagonist, rat GIP(3–30)NH2”, the “body weight, fat mass, triglycerides, LPL, leptin” value (rats; sub-chronic dosing, rats fed normal chow) is listed as “significantly increased body weight, body fat mass, triglycerides, LPL, and leptin levels” and the “food intake or bone resorption” value (rats; subchronic treatment) is listed as “did not modify food intake or bone resorption”.
